Experimental data published in PubChem BioAssay AID1794807 (Yongcheng Song lab at Baylor College of Medicine, 2022).
The source made the active and inactive calls.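 How the source made its calls: active means half-maximal effective concentration EC50 under 50 µM in the live-cell XTT test; inactive means the rest.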

system: MV4;11 AML cells, XTT viability; assay: antiproliferative activity against MV4,11 AML cells – cell-based, XTT absorbance, dose response (AID 1794807)

| EC50 | SMILES |
| --- | --- |
| 9.6 µM | O=C(NCC1CCNCC1)c1cc2ccc(-c3ccc(N4CCCCC4)cc3)cc2s1 |
| 21 µM | O=C(NCC1CCNCC1)c1coc2cc(-c3ccc(N4CCCCC4)cc3)ccc12 |
| 22 µM | O=C(NCC1CCNCC1)c1cc2cc(-c3ccc(N4CCCCC4)cc3)ccc2[nH]1 |
| 8.2 µM | O=C(NCC1CCNCC1)c1cc2cc(-c3ccc(N4CCCCC4)cc3)ccc2s1 |
| 8.7 µM | O=C(NCC1CCNCC1)c1cc2ccc(-c3ccc(N4CCCC4)cc3)cc2s1 |

Second part, the compound before the results:

| SMILES | EC50 |
| --- | --- |
| NCc1ccc(-c2ccc3cc(C(=O)NCC4CCNCC4)oc3c2)cc1 | 50 µM (inactive) |
| O=C(NCC1CCNCC1)c1c[nH]c2cc(-c3ccc(N4CCCCC4)cc3)ccc12 | 33 µM |
| O=C(NCC1CCNCC1)c1c[nH]c2cc(-c3ccc(N4CCCC4)cc3)ccc12 | 26 µM |
| NC(=O)c1ccc(-c2ccc3cc(C(=O)NCC4CCNCC4)sc3c2)cc1 | > 50 µM (inactive) |
| O=C(NCC1CCNCC1)c1cc2cc(-c3cn[nH]c3)ccc2[nH]1 | > 50 µM (inactive) |
